Data taken from paper PMC11783601, “Analogue-Sensitive Inhibition of Histone Demethylases Uncovers Member-Specific Function in Ribosomal Protein Synthesis” (Journal of the American Chemical Society, 2025).
Like-named read-outs stand apart in the source and are kept apart here.

How the values were obtained:
TET1 = target: T1, TET1 (Homo sapiens, UniProt Q8NFU7); experiment: Activity of full-length TET in HEK293T cells, 5hmC dot blot; assay type: cell-based; conditions: dot-blot with 5hmC antibody
T1 construct: transfected with full-length TET1/3 constructs; expressed in transfected cells; host or cells: HEK293T
T1 sequence (Q8NFU7 whole entry): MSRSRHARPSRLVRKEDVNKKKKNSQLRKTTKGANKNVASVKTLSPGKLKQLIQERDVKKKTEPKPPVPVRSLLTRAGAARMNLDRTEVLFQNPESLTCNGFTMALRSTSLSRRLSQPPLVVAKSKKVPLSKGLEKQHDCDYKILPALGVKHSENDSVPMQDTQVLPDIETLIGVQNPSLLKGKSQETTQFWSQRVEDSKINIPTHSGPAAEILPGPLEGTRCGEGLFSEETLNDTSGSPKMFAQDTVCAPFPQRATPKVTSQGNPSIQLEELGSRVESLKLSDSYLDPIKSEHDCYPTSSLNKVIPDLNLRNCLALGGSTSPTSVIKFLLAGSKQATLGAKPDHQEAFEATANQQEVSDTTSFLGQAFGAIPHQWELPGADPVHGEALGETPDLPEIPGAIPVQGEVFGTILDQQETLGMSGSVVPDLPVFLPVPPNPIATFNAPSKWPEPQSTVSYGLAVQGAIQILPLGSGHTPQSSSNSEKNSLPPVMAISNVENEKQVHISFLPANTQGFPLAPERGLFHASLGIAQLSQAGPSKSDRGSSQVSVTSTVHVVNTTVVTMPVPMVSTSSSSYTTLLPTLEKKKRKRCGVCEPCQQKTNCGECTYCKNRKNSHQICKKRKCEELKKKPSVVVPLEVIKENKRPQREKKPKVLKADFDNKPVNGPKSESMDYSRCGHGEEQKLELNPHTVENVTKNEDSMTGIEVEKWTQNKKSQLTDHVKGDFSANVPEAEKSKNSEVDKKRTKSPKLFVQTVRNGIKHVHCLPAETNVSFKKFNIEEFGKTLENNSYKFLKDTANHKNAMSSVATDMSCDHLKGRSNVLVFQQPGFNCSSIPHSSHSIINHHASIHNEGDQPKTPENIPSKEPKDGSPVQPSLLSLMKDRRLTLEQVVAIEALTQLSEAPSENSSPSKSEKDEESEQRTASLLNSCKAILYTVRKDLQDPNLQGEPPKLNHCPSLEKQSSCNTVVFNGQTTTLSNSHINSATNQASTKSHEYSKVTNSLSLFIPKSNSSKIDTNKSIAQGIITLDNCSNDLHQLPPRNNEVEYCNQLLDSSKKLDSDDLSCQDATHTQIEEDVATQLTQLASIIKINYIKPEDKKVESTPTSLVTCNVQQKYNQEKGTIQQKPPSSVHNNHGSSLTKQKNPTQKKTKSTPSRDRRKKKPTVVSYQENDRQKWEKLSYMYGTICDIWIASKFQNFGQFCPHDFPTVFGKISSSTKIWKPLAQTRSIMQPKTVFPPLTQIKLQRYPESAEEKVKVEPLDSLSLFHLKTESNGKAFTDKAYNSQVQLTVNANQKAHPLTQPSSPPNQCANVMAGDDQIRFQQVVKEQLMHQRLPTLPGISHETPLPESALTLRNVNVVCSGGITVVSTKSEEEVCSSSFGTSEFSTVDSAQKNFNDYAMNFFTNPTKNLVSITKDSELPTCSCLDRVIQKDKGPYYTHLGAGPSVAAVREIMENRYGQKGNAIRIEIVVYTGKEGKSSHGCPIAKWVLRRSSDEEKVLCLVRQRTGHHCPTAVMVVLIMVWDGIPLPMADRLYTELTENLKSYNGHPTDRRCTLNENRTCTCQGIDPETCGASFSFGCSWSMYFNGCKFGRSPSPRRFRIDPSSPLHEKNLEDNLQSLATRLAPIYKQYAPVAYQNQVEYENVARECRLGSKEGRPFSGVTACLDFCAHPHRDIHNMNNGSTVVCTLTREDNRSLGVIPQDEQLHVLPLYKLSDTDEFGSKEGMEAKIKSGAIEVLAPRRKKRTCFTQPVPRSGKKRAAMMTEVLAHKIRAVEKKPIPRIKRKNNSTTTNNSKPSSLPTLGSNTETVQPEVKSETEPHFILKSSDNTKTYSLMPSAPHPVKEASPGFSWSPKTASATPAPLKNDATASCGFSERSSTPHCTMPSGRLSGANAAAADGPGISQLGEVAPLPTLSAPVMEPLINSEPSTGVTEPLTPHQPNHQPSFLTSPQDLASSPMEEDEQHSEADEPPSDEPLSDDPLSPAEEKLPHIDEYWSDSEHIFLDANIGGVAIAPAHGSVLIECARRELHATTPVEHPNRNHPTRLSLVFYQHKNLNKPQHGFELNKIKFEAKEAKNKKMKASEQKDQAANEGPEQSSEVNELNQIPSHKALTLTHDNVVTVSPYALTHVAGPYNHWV
Experimental: (§1) were quantified with Bradford assay (Bio-Rad laboratories) using BSA as a standard and used for
(§2) 14. Expression and activity of full-length TET1 and 3 in HEK293T cells
(§3) To determine the effect of 6A on TET1 and TET3 activity, HEK293T cells were plated in 6 well
(§4) plates and transfected with full-length TET1/3 constructs. Briefly, 2ug of TET1/3 or Empty Vector
(§5) control per well was added to 200µL of JetOptimus buffer and vortexed followed by addition of
(§6) 3µL JetOptimus reagent. The solution was vortexed and left to sit at room temperature for 10
(§7) minutes. The solution was then added to 1.8mL of DMEM and added to the cells in culture plate.
(§8) The cells were left for 4 hours at 37 °C incubator at 5% CO2. The media was aspirated and replaced
(§9) with 2mL of DMEM and 100µM of 6A was added or equivalent volume of DMSO and left in the
(§10) incubator for 24 hours. Cells were then collected and subject to genomic DNA isolation using
(§11) Fisher GeneJET gemoic DNA Purification Kit (Fisher K0721) following manufactures protocol.
(§12) 1000ng of gDNA, as measured via nanodrop, was then subject to Dot Blot experiment. Briefly,
(§13) 20µL of 1000ng gDNA was added to 40µL of 2M NaOH-50mM EDTA solution for 3 minutes at
(§14) room temperature. 140µL of 10mM Tris/1mM EDTA pH 8.0 (TE) buffer and heated at 95 °C for […]

TET3 = target: T2, TET3 (Homo sapiens, UniProt O43151); experiment: as above; assay type: cell-based; conditions: dot-blot with 5hmC antibody
T2 construct: transfected with full-length TET1/3 constructs; expressed in transfected cells; host or cells: HEK293T
T2 sequence (O43151 whole entry): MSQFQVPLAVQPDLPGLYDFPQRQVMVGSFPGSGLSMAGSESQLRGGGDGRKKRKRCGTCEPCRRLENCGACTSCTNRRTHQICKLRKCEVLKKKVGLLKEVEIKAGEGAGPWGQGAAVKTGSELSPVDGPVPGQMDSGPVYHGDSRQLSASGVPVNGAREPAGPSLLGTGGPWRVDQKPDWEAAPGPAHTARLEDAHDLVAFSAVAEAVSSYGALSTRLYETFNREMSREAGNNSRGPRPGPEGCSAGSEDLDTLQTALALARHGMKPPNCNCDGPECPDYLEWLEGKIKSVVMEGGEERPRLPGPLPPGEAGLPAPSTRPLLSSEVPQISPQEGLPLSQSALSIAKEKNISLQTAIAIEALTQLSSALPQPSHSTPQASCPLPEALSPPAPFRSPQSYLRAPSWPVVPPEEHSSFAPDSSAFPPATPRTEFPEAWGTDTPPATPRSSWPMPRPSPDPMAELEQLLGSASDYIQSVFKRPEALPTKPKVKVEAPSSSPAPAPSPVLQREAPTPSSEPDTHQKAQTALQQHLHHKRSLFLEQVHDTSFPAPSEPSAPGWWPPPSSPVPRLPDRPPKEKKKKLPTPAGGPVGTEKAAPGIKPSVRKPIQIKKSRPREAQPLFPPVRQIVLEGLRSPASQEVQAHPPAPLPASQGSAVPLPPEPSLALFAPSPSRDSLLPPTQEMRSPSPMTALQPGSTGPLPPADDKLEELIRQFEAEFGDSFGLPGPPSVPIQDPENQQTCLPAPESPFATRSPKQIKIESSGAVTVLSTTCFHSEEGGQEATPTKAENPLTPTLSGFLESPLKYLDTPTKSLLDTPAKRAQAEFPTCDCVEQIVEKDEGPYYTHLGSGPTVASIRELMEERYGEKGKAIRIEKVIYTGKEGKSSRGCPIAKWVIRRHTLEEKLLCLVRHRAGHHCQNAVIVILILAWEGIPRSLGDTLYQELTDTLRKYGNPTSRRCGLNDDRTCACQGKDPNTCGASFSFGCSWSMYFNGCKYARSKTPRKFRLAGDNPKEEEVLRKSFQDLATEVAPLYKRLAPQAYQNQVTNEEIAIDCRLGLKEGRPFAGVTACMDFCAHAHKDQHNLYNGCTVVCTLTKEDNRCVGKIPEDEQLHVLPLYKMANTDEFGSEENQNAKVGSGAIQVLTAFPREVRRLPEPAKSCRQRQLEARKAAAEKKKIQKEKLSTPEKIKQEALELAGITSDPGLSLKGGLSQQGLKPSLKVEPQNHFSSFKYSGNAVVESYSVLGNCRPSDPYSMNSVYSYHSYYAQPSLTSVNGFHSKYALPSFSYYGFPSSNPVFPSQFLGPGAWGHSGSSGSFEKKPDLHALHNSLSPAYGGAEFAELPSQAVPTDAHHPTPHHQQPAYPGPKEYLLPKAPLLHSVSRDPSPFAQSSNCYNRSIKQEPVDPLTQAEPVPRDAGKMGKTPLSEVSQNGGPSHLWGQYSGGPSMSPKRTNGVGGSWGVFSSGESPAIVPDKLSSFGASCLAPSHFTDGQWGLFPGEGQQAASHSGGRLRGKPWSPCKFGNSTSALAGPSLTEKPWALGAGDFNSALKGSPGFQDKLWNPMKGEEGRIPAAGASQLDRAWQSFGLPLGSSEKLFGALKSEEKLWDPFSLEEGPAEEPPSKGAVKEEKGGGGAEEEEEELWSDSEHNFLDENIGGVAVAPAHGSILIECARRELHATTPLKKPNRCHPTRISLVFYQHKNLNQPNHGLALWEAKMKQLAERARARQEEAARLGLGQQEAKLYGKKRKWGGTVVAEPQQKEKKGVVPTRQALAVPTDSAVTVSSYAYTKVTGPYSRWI
Experimental: as §1, §2, §3, §4, §5, §6, §7, §8, §9, §10, §11, §12, §13, §14

KDM4D-F189A = target: T3, KDM4D-F189A (Homo sapiens, UniProt Q6B0I6, F189A); experiment: MALDI-MS demethylase assay on H3K9me3 peptide; assay type: biochemical; conditions: 50 µM (Fig S15)
T3 construct: human KDM4B and KDM4D jmjC catalytic domain for bacterial; Strep II (N); made in house; host or cells: E. coli Rosetta [DE3]
T3 sequence (Q6B0I6 146-312 F189A limits assumed): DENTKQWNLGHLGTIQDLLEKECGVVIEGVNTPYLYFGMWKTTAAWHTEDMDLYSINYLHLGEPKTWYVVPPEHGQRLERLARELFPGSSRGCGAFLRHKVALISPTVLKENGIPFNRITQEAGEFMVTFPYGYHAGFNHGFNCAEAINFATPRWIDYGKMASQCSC
Experimental: (§15) We next tested the inhibitory potential of 6 against these proteins using H3K9me3 peptide substrate and analyzed it by MALDI-MS. […] We subsequently examined the ability of asKDM4 variants to demethylate full-length histones extracted from mammalian cells. HEK293T cells were cultured in the presence of 10 μM n-octyl IOX1, a broad-spectrum inhibitor of demethylases,[41],[42] to generate a hypermethylated proteome (Figure S19). The extracted histone was incubated with the as variants individually, each with or without 6, and the extent of demethylation was analyzed by Western blot using the H3K9me3-specific antibody. […]
(§16) assay (Biorad) kit with BSA concentrations as a standard. […]
(§17) 8. Demethylase activity of the wild type and mutant KDM4 proteins on peptide substrate To monitor enzymatic activity, a demethylase activity assay was optimized and then observed through MALDI-TOF.7 Each histone demethylase assay sample included either wild type or mutant enzyme (10µM KDM4A, 7.5µM KDM4C, 10µM KDM4D, or 1µM KDM4E), 10 µM peptide, 200 µM 2OG, 50 mM Tris pH 8, […], 0-200µM NOG analogue, and 2 mM L-ascorbic acid with a total assay volume of 10 µL. Fe(II) supplement and L-ascorbic acid […]
(§18) Lastly, the 2OG and peptide were […]
(§19) positive mode and analyzed on Bruker FlexAnalysis software. The percent demethylated peptide […]
(§20) the multiple demethylation events on the peptide. […]

wild type KDM4E = target: T4, wild type KDM4E (Homo sapiens, UniProt B2RXH2); experiment: MALDI-MS demethylase assay on H3K9me3 peptide; assay type: biochemical
T4 construct: we recombinantly expressed the catalytic domains of 12 wild type dioxygenases, in addition to KDM4A-E; 6xHis (N); host or cells: E. coli BL21 (DE3)
T4 sequence (B2RXH2 143-309 limits assumed): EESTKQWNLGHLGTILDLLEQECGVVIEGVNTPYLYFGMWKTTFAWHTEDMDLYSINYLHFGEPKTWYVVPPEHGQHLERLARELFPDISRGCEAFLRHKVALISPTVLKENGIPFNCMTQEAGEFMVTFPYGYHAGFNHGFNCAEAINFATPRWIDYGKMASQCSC
Experimental: as §15, §16, §17, §18, §19, §20

wild type KDM4C = target: T5, wild type KDM4C (Homo sapiens, UniProt Q9H3R0); experiment: MALDI-MS demethylase assay on H3K9me3 peptide; assay type: biochemical
T5 construct: 6xHis-tagged human KDM4C catalytic domain construct; 6xHis (N); made in house; host or cells: E. coli BL21 [DE3] star
T5 sequence (Q9H3R0 144-310 limits assumed): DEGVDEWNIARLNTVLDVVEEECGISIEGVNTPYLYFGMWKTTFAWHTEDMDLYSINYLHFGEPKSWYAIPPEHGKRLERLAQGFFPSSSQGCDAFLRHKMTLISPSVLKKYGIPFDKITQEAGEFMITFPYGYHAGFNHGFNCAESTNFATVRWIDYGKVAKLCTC
Experimental: as §15, §16, §17, §18, §19, §20

KDM4E-F186A = target: T6, KDM4E-F186A (Homo sapiens, UniProt B2RXH2, F186A); experiment: MALDI-MS demethylase assay on H3K9me3 peptide; assay type: biochemical
T6 construct: we recombinantly expressed the catalytic domains of 12 wild type dioxygenases, in addition to KDM4A-E; 6xHis (N); host or cells: E. coli BL21 (DE3)
T6 sequence (B2RXH2 143-309 F186A limits assumed): as the sequence (B2RXH2 143-309 limits assumed) above, with F44A counted along it
Experimental: as §15, §16, §17, §18, §19, §20

wild type KDM4D = target: T7, wild type KDM4D (Homo sapiens, UniProt Q6B0I6); experiment: MALDI-MS demethylase assay on H3K9me3 peptide; assay type: biochemical
T7 construct: human KDM4B and KDM4D jmjC catalytic domain for bacterial; Strep II (N); made in house; host or cells: E. coli Rosetta [DE3]
T7 sequence (Q6B0I6 146-312 limits assumed): as the sequence (Q6B0I6 146-312 F189A limits assumed) above, with A44F counted along it
Experimental: as §15, §16, §17, §18, §19, §20

KDM4C-F187A = target: T8, KDM4C-F187A (Homo sapiens, UniProt Q9H3R0, F187A); experiment: MALDI-MS demethylase assay on H3K9me3 peptide; assay type: biochemical; conditions: 50 µM (Fig S14)
T8 construct: 6xHis-tagged human KDM4C catalytic domain construct; 6xHis (N); made in house; host or cells: E. coli BL21 [DE3] star
T8 sequence (Q9H3R0 144-310 F187A limits assumed): as the sequence (Q9H3R0 144-310 limits assumed) above, with F44A counted along it
Experimental: as §15, §16, §17, §18, §19, §20

Compound	inhibition of TET1 5hmC formation (TET1)	inhibition of TET3 5hmC formation (TET3)	inhibition of KDM4D-F189A (KDM4D-F189A)	inhibition of KDM4D-F189A (KDM4D-F189A; listed as NOG 6)	inhibition of wild type KDM4E (wild type KDM4E)	inhibition of wild type KDM4C (wild type KDM4C)	inhibition of wild type KDM4C (wild type KDM4C; listed as NOG 6)	inhibition of KDM4E-F186A (KDM4E-F186A)	inhibition of wild type KDM4D (wild type KDM4D)	inhibition of wild type KDM4D (wild type KDM4D; listed as NOG 6)	inhibition of KDM4C-F187A (KDM4C-F187A)	inhibition of KDM4C-F187A (KDM4C-F187A; listed as NOG 6)
CCCCCCCCOC(=O)C(=O)NC(CC(C)C)C(=O)O [6A, L-Leu octyl-ester NOG]	No inhibition	No inhibition										
CC(C)CC(NC(=O)C(=O)O)C(=O)O (stereo not drawn) [compound 6, N-oxalyl leucine]			significantly inhibited	inhibits the mutant completely	fully refractory	fully refractory	does not inhibit	significantly inhibited	fully refractory	does not inhibit	significantly inhibited	inhibits the mutant completely
